Assay results: US9975895B2, “Substituted pyrimidinium compounds and derivatives for combating animal pests” (BASF SE, priority 2013, dated 2018)

Test system: Rice brown plant hopper (Nilaparvata lugens)
Assay: Rice brown plant hopper, sprayed potted rice seedlings
Assay type: in vivo
Details: adults on sprayed rice seedlings, after 72 hours, read-out: mortality in comparison with untreated controls
Protocol: (§1) Rice seedlings were cleaned and washed 24 hours before spraying. The active compounds were formulated in 50:50 acetone:water (vol:vol) and 0.1% vol/vol surfactant (EL 620) was added. Potted rice seedlings were sprayed with 5 ml test solution, air dried, placed in cages and inoculated with 10 adults. Treated rice plants were kept at about 28-29° C. and relative humidity of about 50-60%. Percent mortality was recorded after 72 hours.

| SMILES | mortality at 500 ppm |
| --- | --- |
| O=c1c(-c2ccccc2)c([O-])[n+]2c3n1CCCC3CCC2c1cnc(Cl)s1 (stereo not drawn) [C-6] | > 75% |
| O=c1c(-c2ccccc2)c([O-])[n+]2c3c(cccn13)CCC2c1cnc(Cl)s1 (stereo not drawn) [C-8] | > 75% |
| O=c1c(-c2ccccc2)c([O-])[n+]2c3n1CCC3CCC2c1cnc(Cl)s1 (stereo not drawn) [C-2] | > 75% |
| O=c1c(-c2ccccc2)c([O-])[n+]2c3n1CCCN3CCC2c1cnc(Cl)s1 (stereo not drawn) [C-7] | > 75% |
| O=c1c(-c2ccccc2)c([O-])[n+]2c3n1CCCC3CC2c1cnc(Cl)s1 (stereo not drawn) [C-3] | > 75% |

Test system: Vetch aphid (Megoura viciae)
Assay: Vetch aphid control through contact or systemic means, broad bean leaf disks
Assay type: in vivo
Details: foliar, 120 h, adult aphids on treated leaf disks, 5 days, read-out: mortality in comparison with untreated controls
Protocol: For evaluating control of vetch aphid (Megoura viciae) through contact or systemic means the test unit consisted of 24-well-microtiter plates containing broad bean leaf disks.
The compounds were formulated using a solution containing 75% v/v water and 25% v/v DMSO. Different concentrations of formulated compounds were sprayed onto the leaf disks at 2.5 μl, using a custom built micro atomizer, at two replications.
After application, the leaf disks were air-dried and 5-8 adult aphids placed on the leaf disks inside the microtiter plate wells. The aphids were then allowed to suck on the treated leaf disks and incubated at about 23±1° C. and about 50±5% relative humidity for 5 days. Aphid mortality and fecundity was then visually assessed.

| SMILES | mortality at 2500 ppm |
| --- | --- |
| O=c1c(-c2ccccc2)c([O-])[n+]2c3n1CCCC3CCC2c1cnc(Cl)s1 (stereo not drawn) [C-6] | > 75% |
| O=c1c(-c2ccccc2)c([O-])[n+]2c3c(cccn13)CCC2c1cnc(Cl)s1 (stereo not drawn) [C-8] | > 75% |
| O=c1c(-c2ccccc2)c([O-])[n+]2c3n1CCC3CCC2c1cnc(Cl)s1 (stereo not drawn) [C-2] | > 75% |
| O=c1c(-c2cccc(C(F)(F)F)c2)c([O-])n2c3c(ccc[n+]13)CCC2c1cnc(Cl)s1 (stereo not drawn) [C-9] | > 75% |
| O=c1c(-c2ccccc2)c([O-])[n+]2c3n1CCCN3CCC2c1cnc(Cl)s1 (stereo not drawn) [C-7] | > 75% |
| O=c1c(-c2ccccc2)c([O-])[n+]2c3n1CCCC3CC2c1cnc(Cl)s1 (stereo not drawn) [C-3] | > 75% |
| O=c1c(-c2cc(Cl)cc(Cl)c2)c([O-])n2c3c(ccc[n+]13)CCC2c1cnc(Cl)s1 (stereo not drawn) [C-10] | > 75% |
| COc1ccc(-c2c([O-])n3c4c(ccc[n+]4c2=O)CCC3c2cnc(Cl)s2)cc1 (stereo not drawn) [C-11] | > 75% |

Test system: Green peach aphid (Myzus persicae)
Assay: Green peach aphid control through systemic means, artificial diet under membrane
Assay type: in vivo
Details: 72 h, adult aphids on treated diet, 3 days, read-out: mortality in comparison with untreated controls
Text: For evaluating control of green peach aphid (Myzus persicae) through systemic means the test unit consisted of 96-well-microtiter plates containing liquid artificial diet under an artificial membrane.
The compounds were formulated using a solution containing 75% v/v water and 25% v/v DMSO. Different concentrations of formulated compounds were pipetted into the aphid diet, using a custom built pipetter, at two replications.
After application, 5-8 adult aphids were placed on the artificial membrane inside the microtiter plate wells. The aphids were then allowed to suck on the treated aphid diet and incubated at about 23±1° C. and about 50±5% relative humidity for 3 days. Aphid mortality and fecundity was then visually assessed.

| SMILES | mortality at 2500 ppm |
| --- | --- |
| O=c1c(-c2ccccc2)c([O-])[n+]2c3n1CCCC3CCC2c1cnc(Cl)s1 (stereo not drawn) [C-6] | > 75% |
| O=c1c(-c2ccccc2)c([O-])[n+]2c3c(cccn13)CCC2c1cnc(Cl)s1 (stereo not drawn) [C-8] | > 75% |
| O=c1c(-c2ccccc2)c([O-])[n+]2c3n1CCC3CCC2c1cnc(Cl)s1 (stereo not drawn) [C-2] | > 75% |
| O=c1c(-c2cccc(C(F)(F)F)c2)c([O-])n2c3c(ccc[n+]13)CCC2c1cnc(Cl)s1 (stereo not drawn) [C-9] | > 75% |
| O=c1c(-c2ccccc2)c([O-])[n+]2c3n1CCCN3CCC2c1cnc(Cl)s1 (stereo not drawn) [C-7] | > 75% |
| O=c1c(-c2ccccc2)c([O-])[n+]2c3n1CCN3CCC2c1cnc(Cl)s1 (stereo not drawn) [C-4] | > 75% |
| O=c1c(-c2ccccc2)c([O-])[n+]2c3n1CCCC3CC2c1cnc(Cl)s1 (stereo not drawn) [C-3] | > 75% |
| COc1ccc(-c2c([O-])n3c4c(ccc[n+]4c2=O)CCC3c2cnc(Cl)s2)cc1 (stereo not drawn) [C-11] | > 75% |

Test system: Tobacco budworm (Heliothis virescens)
Assay: Tobacco budworm control, 96-well microtiter plates with insect diet and eggs
Assay type: in vivo
Details: 120 h, egg and larval mortality after 5 days, read-out: mortality in comparison with untreated controls
Protocol: For evaluating control of tobacco budworm (Heliothis virescens) the test unit consisted of 96-well-microtiter plates containing an insect diet and 15-25 H. virescens eggs.
The compounds were formulated using a solution containing 75% v/v water and 25% v/v DMSO. Different concentrations of formulated compounds were sprayed onto the insect diet at 10 μl, using a custom built micro atomizer, at two replications.
After application, microtiter plates were incubated at about 28±1° C. and about 80±5% relative humidity for 5 days. Egg and larval mortality was then visually assessed.

| SMILES | mortality at 2500 ppm |
| --- | --- |
| O=c1c(-c2ccccc2)c([O-])[n+]2c3c(cccn13)CCC2c1cnc(Cl)s1 (stereo not drawn) [C-8] | > 75% |
| O=c1c(-c2cccc(C(F)(F)F)c2)c([O-])n2c3c(ccc[n+]13)CCC2c1cnc(Cl)s1 (stereo not drawn) [C-9] | > 75% |
| O=c1c(-c2cc(Cl)cc(Cl)c2)c([O-])n2c3c(ccc[n+]13)CCC2c1cnc(Cl)s1 (stereo not drawn) [C-10] | > 75% |
| COc1ccc(-c2c([O-])n3c4c(ccc[n+]4c2=O)CCC3c2cnc(Cl)s2)cc1 (stereo not drawn) [C-11] | > 75% |

Test system: Boll weevil (Anthonomus grandis)
Assay: Boll weevil control, 96-well microtiter plates with insect diet and eggs
Assay type: in vivo
Details: 120 h, egg and larval mortality after 5 days, read-out: mortality in comparison with untreated controls
Protocol: For evaluating control of boll weevil (Anthonomus grandis) the test unit consisted of 96-well-microtiter plates containing an insect diet and 5-10 A. grandis eggs.
The compounds were formulated using a solution containing 75% v/v water and 25% v/v DMSO. Different concentrations of formulated compounds were sprayed onto the insect diet at 5 μl, using a custom built micro atomizer, at two replications.
After application, microtiter plates were incubated at about 25±1° C. and about 75±5% relative humidity for 5 days. Egg and larval mortality was then visually assessed.

| SMILES | mortality at 2500 ppm |
| --- | --- |
| O=c1c(-c2ccccc2)c([O-])[n+]2c3c(cccn13)CCC2c1cnc(Cl)s1 (stereo not drawn) [C-8] | > 75% |
| O=c1c(-c2ccccc2)c([O-])[n+]2c3n1CCCN3CCC2c1cnc(Cl)s1 (stereo not drawn) [C-7] | > 75% |

Test system: Orchid thrips (Dichromothrips corbetti)
Assay: Orchid thrips floral-immersion bioassay
Assay type: in vivo
Details: adult thrips, 72 hours after treatment, read-out: mortality in comparison with untreated controls
Protocol: Dichromothrips corbetti adults used for bioassay were obtained from a colony maintained continuously under laboratory conditions. For testing purposes, the test compound is diluted in a 1:1 mixture of acetone:water (vol:vol), plus 0.01% vol/vol Alkamuls® EL 620 surfactant. Thrips potency of each compound was evaluated by using a floral-immersion technique. Plastic petri dishes were used as test arenas. All petals of individual, intact orchid flowers were dipped into treatment solution and allowed to dry. Treated flowers were placed into individual petri dishes along with about 20 adult thrips. The petri dishes were then covered with lids. All test arenas were held under continuous light and a temperature of about 28° C. for duration of the assay. After 3 days, the numbers of live thrips were counted on each flower, and along inner walls of each petri dish. The percent mortality was recorded 72 hours after treatment.

| SMILES | mortality at 500 ppm |
| --- | --- |
| O=c1c(-c2ccccc2)c([O-])[n+]2c3n1CCCC3CCC2c1cnc(Cl)s1 (stereo not drawn) [C-6] | > 75% |
| O=c1c(-c2ccccc2)c([O-])[n+]2c3c(cccn13)CCC2c1cnc(Cl)s1 (stereo not drawn) [C-8] | > 75% |
| O=c1c(-c2ccccc2)c([O-])[n+]2c3n1CCC3CCC2c1cnc(Cl)s1 (stereo not drawn) [C-2] | > 75% |
| O=c1c(-c2ccccc2)c([O-])[n+]2c3n1CCCN3CCC2c1cnc(Cl)s1 (stereo not drawn) [C-7] | > 75% |
| O=c1c(-c2ccccc2)c([O-])[n+]2c3n1CCN3CCC2c1cnc(Cl)s1 (stereo not drawn) [C-4] | > 75% |
| O=c1c(-c2ccccc2)c([O-])[n+]2c3n1CCCC3CC2c1cnc(Cl)s1 (stereo not drawn) [C-3] | > 75% |

Test system: Rice green leafhopper (Nephotettix virescens)
Assay: Rice green leafhopper, sprayed potted rice seedlings
Assay type: in vivo
Details: adults on sprayed rice seedlings, after 72 hours, read-out: mortality in comparison with untreated controls
Protocol: as §1, with “(vol:vol),” for “(vol:vol)”

| SMILES | mortality at 500 ppm |
| --- | --- |
| O=c1c(-c2ccccc2)c([O-])[n+]2c3n1CCCC3CCC2c1cnc(Cl)s1 (stereo not drawn) [C-6] | > 75% |
| O=c1c(-c2ccccc2)c([O-])[n+]2c3c(cccn13)CCC2c1cnc(Cl)s1 (stereo not drawn) [C-8] | > 75% |
| O=c1c(-c2ccccc2)c([O-])[n+]2c3n1CCC3CCC2c1cnc(Cl)s1 (stereo not drawn) [C-2] | > 75% |
| O=c1c(-c2ccccc2)c([O-])[n+]2c3n1CCCN3CCC2c1cnc(Cl)s1 (stereo not drawn) [C-7] | > 75% |
| O=c1c(-c2ccccc2)c([O-])[n+]2c3n1CCN3CCC2c1cnc(Cl)s1 (stereo not drawn) [C-4] | > 75% |
| O=c1c(-c2ccccc2)c([O-])[n+]2c3n1CCCC3CC2c1cnc(Cl)s1 (stereo not drawn) [C-3] | > 75% |
